Assay [1] has as its system benzodiazepine receptor. The experiment in a line: in vivo benzodiazepine receptor binding (3H-flunitrazepam). The settings on record: 30 mg/kg p.o. in the mouse. The protocol: In vivo benzodiazepine receptor binding is determined essentially as described in Eur. J. Pharmacol. 48, 213 (1978) and Nature 275, 551 (1978).
Test compounds in a corn starch vehicle are administered orally or intraperitioneally to mice or rats. Thirty minutes later, 3H-flunitrazepam(2 nmoles/Kg in saline) is injected into the tail vein, and the animals are sacrificed 20 minutes after injection of the flunitrazepam. The brains are then assayed by determining radioactivity in a liquid scintillation counter for binding of the radioligand to the receptors. A decrease in the binding of 3H-flunitrazepam in the drug-treated animals (as compared with the binding observed in animals treated with vehicle alone) is indicative of benzodiazepine receptor binding by the test compound.

In assay [2] the target is benzodiazepine receptor. Put plainly: in vitro benzodiazepine receptor binding assay (tritiated diazepam displacement). The settings on record: inhibition of specific binding of 2 nM tritiated diazepam, membranes from rat fore-brain, 0°-5°, 30 minutes, pH 7.5. The protocol: The benzodiazepine receptor binding properties indicative of the nervous system regulatory activity of said new compounds are determined in the receptor binding assay in vitro, e.g. as described in Nature 266, 732 (1977) or Proc. Nat. Acad. Sci. USA 74, 3805 (1977). Diazepam binds specifically and with high affinity to crude synaptosomal membrane preparations from rat fore-brain. This binding is inhibited by other anxiolytic compounds. When tritiated diazepem is used, the interaction of other drugs with said receptor can be readily assessed thus: membranes from rat fore-brain are incubated at 0°-5° for 30 minutes with 2 nM tritiated diazepam and various concentrations of the test substance in a buffer medium maintained at pH 7.5. Solutions of the various concentrations of test substances are prepared by dilution of a 4.2 mM stock solution in dimethylacetamide-ethanol (1:10) with 50 mM pH7.5. Tris-HCl buffer. The membranes, containing the receptors with various amounts of tritiated diazepam, are filtered onto glass fiber filters, which are then analyzed in a liquid scintillation counter. The concentration of the compounds of this invention, required to inhibit the specific binding of 2 nM of tritiated diazepam by 50%, i.e. the IC50, is determined graphically.

These results are taken from patent publication US4560689A, “Heterocyclic-fused pyrazolo-[3,4-d]pyridin-3-ones as benzodiazepine receptor modulators” (Ciba-Geigy Corporation, priority 1984, dated 1985).

Where a name gives a salt, the structure may show the parent alone.

With `O=c1c2c[nH]c3ccncc3c-2nn1-c1ccccc1` [Example 1, 2-phenyl-pyrazolo[4,3-c][1,6]naphthyridin-3(5H)-one], the “inhibits flunitrazepam binding in vivo” value in the assay with benzodiazepine receptor [1] was “about 75%”.

Turning to `O=c1c2c[nH]c3ccncc3c-2nn1-c1ccc(Cl)cc1` [Example 2, 2-p-chlorophenyl-pyrazolo[4,3-c][1,6]naphthyridin-3(5H)-one], on benzodiazepine receptor [2], the IC50 was ~0.2 nM.

Turning to `O=c1c2c[nH]c3ccncc3c-2nn1-c1cccnc1` [Example 5a, 2-(3-pyridyl)pyrazolo[4,3-c][1,6]naphthyridin-3-(5H)-one hydrochloride], the IC50 on benzodiazepine receptor [2] was ~3 nM.

Consider `O=c1c2c[nH]c3sccc3c-2nn1-c1ccc(Cl)cc1` [Example 9, 2-(4-chlorophenyl)-thieno[2,3-b]pyrazolo[3,4-d]pyridin-3(5H)-one hydrate], for which, at benzodiazepine receptor [2], the IC50 is ~9 nM.

One may read the IC50 as the concentration at which inhibition is half-maximal.
